Assay results: patent publication US11312724B2 (ASCENTAGE PHARMA (SUZHOU) CO., LTD., priority 2021, dated 2022)
pIC50: −log10 of the molar value.

How the values were obtained:
NCI-H358 cell = assay: Cell proliferation assay (Celltiter-Glo), NCI-H358; format: cell-based; conditions: Homo sapiens, NCI-H358, 72 h, 3 days
Description: (§1) Cell Proliferation Assay:
(§2) NCI-H358 cell and MIA PaCa-2 cell was cultured in RPMI-1640 supplemented with 10% FBS in humidified incubator at 37° C., 5% CO2. To asses the effect of Compounds of the Disclosure on cell proliferation, exponentially growing cells (5000 cells/well) were plated onto 96-well plates. After cell seeding, a representative Compounds of the Disclosure were added to the cell media (in concentrations ranging from 0 to 10 μM, 3/dilution series). After 3 days, 30 μL Celltiter-Glo reagent was added, and the luminescent signal was determined according to supplier's instruction. The dose response curves and IC50 values were generated using Prism.

MIA PaCa-2 cell = assay: Cell proliferation assay (Celltiter-Glo), MIA PaCa-2; format: cell-based; conditions: Homo sapiens, MIA PaCa-2, 72 h, 3 days
Description: as §1, §2

Row | Compound | pIC50 (NCI-H358 cell) | pIC50 (MIA PaCa-2 cell)
1 | C=CC(=O)N1CCN(c2nc(OC[C@@H]3CCCN3C)nc3c2CCC2(CCCc4ccc(F)cc42)C3)C[C@@H]1CC#N (stereo partly drawn) [Cpd. No. 11, 2-((2S)-1-acryloyl-4-(7-fluoro-2′-(((S)-1-methylpyrrolidin-2-yl)methoxy)-3,4,5′,8′-tetrahydro-2H,6′H-spiro[naphthalene-1,7′-quinazolin]-4′-yl)piperazin-2-yl)acetonitrile] | 6.70 | 6.96
2 | C=C(F)C(=O)N1CCN(c2nc(OC[C@@H]3CCCN3C)nc3c2CCC2(CCCc4ccccc42)C3)C[C@@H]1CC#N (stereo partly drawn) [Cpd. No. 13, 2-((2S)-1-(2-fluoroacryloyl)-4-(2′-(((S)-1-methylpyrrolidin-2-yl)methoxy)-3,4,5′,8′-tetrahydro-2H,6′H-spiro[naphthalene-1,7′-quinazolin]-4′-yl)piperazin-2-yl)acetonitrile] | 6.54 | 6.66
3 | C/C=C/C(=O)N1CCN(c2nc(OC[C@@H]3CCCN3C)nc3c2CCC2(CCCc4ccccc42)C3)C[C@@H]1CC#N (stereo partly drawn) [Cpd. No. 14, 2-((2S)-1-((E)-but-2-enoyl)-4-(2′-(((S)-1-methylpyrrolidin-2-yl)methoxy)-3,4,5′,8′-tetrahydro-2H,6′H-spiro[naphthalene-1,7′-quinazolin]-4′-yl)piperazin-2-yl)acetonitrile] | 5.78 | 5.78
4 | CN(C)C/C=C/C(=O)N1CCN(c2nc(OC[C@@H]3CCCN3C)nc3c2CCC2(CCCc4ccccc42)C3)C[C@@H]1CC#N (stereo partly drawn) [Cpd. No. 15, 2-((2S)-1-((E)-4-(dimethylamino)but-2-enoyl)-4-(2′-(((S)-1-methylpyrrolidin-2-yl)methoxy)-3,4,5′,8′-tetrahydro-2H,6′H-spiro[naphthalene-1,7′-quinazolin]-4′-yl)piperazin-2-yl)acetonitrile] | 6.29 | 6.54
5 | C=CS(=O)(=O)N1CCN(c2nc(OC[C@@H]3CCCN3C)nc3c2CCC2(CCCc4ccccc42)C3)C[C@@H]1CC#N (stereo partly drawn) [Cpd. No. 16, 2-((2S)-4-(2′-(((S)-1-methylpyrrolidin-2-yl)methoxy)-3,4,5′,8′-tetrahydro-2H,6′H-spiro[naphthalene-1,7′-quinazolin]-4′-yl)-1-(vinylsulfonyl)piperazin-2-yl)acetonitrile] | 5.72 | 5.53
6 | C=CC(=O)N1CCN(c2nc(OC[C@@H]3CCCN3C)nc3c2CCC2(CCOc4ccccc42)C3)C[C@@H]1CC#N (stereo partly drawn) [Cpd. No. 21, 2-((2S)-1-acryloyl-4-(2′-(((S)-1-methylpyrrolidin-2-yl)methoxy)-5′,8′-dihydro-6′H-spiro[chromane-4,7′-quinazolin]-4′-yl)piperazin-2-yl)acetonitrile] | 6.33 | 6.36
7 | C=CC(=O)N1CCN(c2nc(OC[C@@H]3CCCN3C)nc3c2CCC2(CCOc4c(Cl)cccc42)C3)C[C@@H]1CC#N (stereo partly drawn) [Cpd. No. 22, 2-((2S)-1-acryloyl-4-(8-chloro-2′-(((S)-1-methylpyrrolidin-2-yl)methoxy)-5′,8′-dihydro-6′H-spiro[chromane-4,7′-quinazolin]-4′-yl)piperazin-2-yl)acetonitrile] | 6.03 | 6.31
8 | C=CC(=O)N1CCN(c2nc(OC[C@@H]3CCCN3C)nc3c2CCC2(CCOc4c(Cl)cc(Cl)cc42)C3)C[C@@H]1CC#N (stereo partly drawn) [Cpd. No. 23, 2-((2S)-1-acryloyl-4-(6,8-dichloro-2′-(((S)-1-methylpyrrolidin-2-yl)methoxy)-5′,8′-dihydro-6′H-spiro[chromane-4,7′-quinazolin]-4′-yl)piperazin-2-yl)acetonitrile] | 5.91 | 6.13
9 | C=CC(=O)N1CCN(c2nc(OC[C@@H]3CCCN3C)nc3c2CCC2(C3)CC(C)Oc3ccccc32)C[C@@H]1CC#N (stereo partly drawn) [Cpd. No. 25, 2-((2S)-1-acryloyl-4-(2-methyl-2′-(((S)-1-methylpyrrolidin-2-yl)methoxy)-5′,8′-dihydro-6′H-spiro[chromane-4,7′-quinazolin]-4′-yl)piperazin-2-yl)acetonitrile] | 5.74 | 5.89
10 | C=CC(=O)N1C2CCC1CN(c1nc(OC[C@@H]3CCCN3C)nc3c1CCC1(COCc4cccc(F)c41)C3)C2 (stereo partly drawn) [Cpd. No. 29, 1-(3-(5-fluoro-2′-(((S)-1-methylpyrrolidin-2-yl)methoxy)-5′,8′-dihydro-6′H-spiro[isochromane-4,7′-quinazolin]-4′-yl)-3,8-diazabicyclo[3.2.1]octan-8-yl)prop-2-en-1-one] | 5.09 | < 5.00

Now those with a higher pIC50 (NCI-H358 cell), led by results:

Row | pIC50 (NCI-H358 cell) | pIC50 (MIA PaCa-2 cell) | Compound
11 | 7.19 | 7.26 | C=CC(=O)N1CCN(c2nc(OC[C@@H]3CCCN3C)nc3c2CCC2(CCc4ccc(C)cc42)C3)C[C@@H]1CC#N (stereo partly drawn) [Cpd. No. 12, 2-((2S)-1-acryloyl-4-(6-methyl-2′-(((S)-1-methylpyrrolidin-2-yl)methoxy)-2,3,5′,8′-tetrahydro-6′H-spiro[indene-1,7′-quinazolin]-4′-yl)piperazin-2-yl)acetonitrile]
12 | 7.00 | 7.27 | C=CC(=O)N1CCN(c2nc(OCCCN(C)C)nc3c2CCC2(CCCc4ccccc42)C3)C[C@@H]1CC#N (stereo partly drawn) [Cpd. No. 17, 2-((2S)-1-acryloyl-4-(2′-(3-(dimethylamino)propoxy)-3,4,5′,8′-tetrahydro-2H,6′H-spiro[naphthalene-1,7′-quinazolin]-4′-yl)piperazin-2-yl)acetonitrile]
13 | 6.80 | 6.96 | C=CC(=O)N1CCN(c2nc(OC[C@@H]3CCCCN3C)nc3c2CCC2(CCCc4ccccc42)C3)C[C@@H]1CC#N (stereo partly drawn) [Cpd. No. 18, 2-((2S)-1-acryloyl-4-(2′-(((S)-1-methylpiperidin-2-yl)methoxy)-3,4,5′,8′-tetrahydro-2H,6′H-spiro[naphthalene-1,7′-quinazolin]-4′-yl)piperazin-2-yl)acetonitrile]
14 | 6.89 | 6.96 | C=CC(=O)N1CCN(c2nc(OCCCN3CCOCC3)nc3c2CCC2(CCCc4ccccc42)C3)C[C@@H]1CC#N (stereo partly drawn) [Cpd. No. 19, 2-((2S)-1-acryloyl-4-(2′-(3-morpholinopropoxy)-3,4,5′,8′-tetrahydro-2H,6′H-spiro[naphthalene-1,7′-quinazolin]-4′-yl)piperazin-2-yl)acetonitrile]
15 | 7.14 | 7.34 | C=CC(=O)N1CCN(c2nc(OC[C@@H]3CN(C)CCO3)nc3c2CCC2(CCCc4ccccc42)C3)C[C@@H]1CC#N (stereo partly drawn) [Cpd. No. 20, 2-((2S)-1-acryloyl-4-(2′-(((S)-4-methylmorpholin-2-yl)methoxy)-3,4,5′,8′-tetrahydro-2H,6′H-spiro[naphthalene-1,7′-quinazolin]-4′-yl)piperazin-2-yl)acetonitrile]
16 | 7.96 | 8.22 | C=CC(=O)N1CCN(c2nc(OC[C@@H]3CCCN3C)nc3c2CCC2(COCc4ccccc42)C3)C[C@@H]1CC#N (stereo partly drawn) [Cpd. No. 24, 2-((2S)-1-acryloyl-4-(2′-(((S)-1-methylpyrrolidin-2-yl)methoxy)-5′,8′-dihydro-6′H-spiro[isochromane-4,7′-quinazolin]-4′-yl)piperazin-2-yl)acetonitrile]
17 | 7.26 | 7.72 | C=CC(=O)N1CCN(c2nc(OC[C@@H]3CCCN3C)nc3c2CCC2(COCc4cccc(F)c42)C3)C[C@@H]1CC#N (stereo partly drawn) [Cpd. No. 27, 2-((2S)-1-acryloyl-4-(5-fluoro-2′-(((S)-1-methylpyrrolidin-2-yl)methoxy)-5′,8′-dihydro-6′H-spiro[isochromane-4,7′-quinazolin]-4′-yl)piperazin-2-yl)acetonitrile]
